Measurements published in patent publication US11274084B2, “3-aryl-4-amido-bicyclic [4,5,0] hydroxamic acids as HDAC inhibitors” (Valo Health, Inc., priority 2015, dated 2022).

Target: T1, HDAC6 (Homo sapiens, UniProt Q9UBN7)
T1 construct: Full length human recombinant HDAC6 protein; made in house
T1 sequence (Q9UBN7 1-1215): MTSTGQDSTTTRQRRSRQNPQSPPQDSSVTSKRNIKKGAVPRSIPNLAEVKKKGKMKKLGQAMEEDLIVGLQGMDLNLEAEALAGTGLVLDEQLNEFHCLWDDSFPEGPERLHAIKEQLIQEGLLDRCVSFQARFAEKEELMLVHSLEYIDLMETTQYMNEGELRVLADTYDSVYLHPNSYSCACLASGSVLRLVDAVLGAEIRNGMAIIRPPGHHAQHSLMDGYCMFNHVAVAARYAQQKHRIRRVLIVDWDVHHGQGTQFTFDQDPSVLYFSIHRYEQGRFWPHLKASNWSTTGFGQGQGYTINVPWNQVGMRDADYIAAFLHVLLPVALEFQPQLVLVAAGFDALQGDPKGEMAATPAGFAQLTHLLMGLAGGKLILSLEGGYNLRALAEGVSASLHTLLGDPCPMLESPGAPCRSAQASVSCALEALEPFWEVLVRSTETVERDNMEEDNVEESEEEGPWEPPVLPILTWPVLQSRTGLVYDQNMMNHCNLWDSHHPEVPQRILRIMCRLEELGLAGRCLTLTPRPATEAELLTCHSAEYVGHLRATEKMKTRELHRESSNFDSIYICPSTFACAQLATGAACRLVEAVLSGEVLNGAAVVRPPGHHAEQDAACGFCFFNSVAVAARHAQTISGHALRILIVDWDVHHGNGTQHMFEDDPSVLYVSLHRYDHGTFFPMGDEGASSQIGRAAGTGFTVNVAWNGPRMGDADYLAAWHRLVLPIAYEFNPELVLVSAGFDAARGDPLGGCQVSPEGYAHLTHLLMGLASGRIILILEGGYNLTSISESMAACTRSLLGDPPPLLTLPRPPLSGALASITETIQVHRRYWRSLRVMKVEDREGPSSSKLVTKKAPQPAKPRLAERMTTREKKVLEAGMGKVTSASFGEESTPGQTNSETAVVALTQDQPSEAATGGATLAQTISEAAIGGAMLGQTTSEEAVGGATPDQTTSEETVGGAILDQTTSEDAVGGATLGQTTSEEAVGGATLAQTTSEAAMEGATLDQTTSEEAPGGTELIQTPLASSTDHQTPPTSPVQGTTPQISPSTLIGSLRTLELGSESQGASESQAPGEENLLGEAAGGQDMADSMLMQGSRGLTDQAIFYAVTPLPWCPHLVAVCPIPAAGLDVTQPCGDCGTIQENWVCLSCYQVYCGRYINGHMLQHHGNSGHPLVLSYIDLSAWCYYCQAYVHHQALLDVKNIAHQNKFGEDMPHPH
Experiment: In vitro histone deacetylase assay: enzymatic HDAC6 assay by electrophoretic mobility shift
Assay type: biochemical
Conditions: full length human recombinant HDAC6 1 nM, 2 μM peptide substrate RHKK(Ac)-NH2, 25° C., 12 concentrations; read-out: Inhibitory Concentration (IC50) against HDAC6, Activity Range
Description: The enzymatic HDAC6 assay was performed using electrophoretic mobility shift assay. […] The enzymatic reactions were assembled in 384-well plates in a total volume of 25 μL of a reaction buffer comprising. 100 mM HEPES, pH 7.5, 25 mM KCl, 0.1% bovine serum albumin, 0.01% Triton X-100, 1% DMSO (from compounds), 2 μM of the fluorescently labeled peptide substrate, and enzyme. The enzyme was added at a final concentration of 1 nM. The peptide substrate RHKK(Ac)-NH2 was used. The compounds were tested at 12 concentrations spaced by 3× dilution intervals. Negative control samples (0%-inhibition in the absence of inhibitor) and positive control samples (100%-inhibition) were assembled in replicates of four in each assay plate. The reactions were incubated at 25° C. and quenched by the addition of 45 μL of termination buffer (100 mM HEPES, pH 7.5, 0.01% Triton X-100, 0.05% SDS).
The terminated assay plates were analyzed on LabChip® 3000 microfluidic electrophoresis instrument (Perkin Elmer/Caliper Life Sciences). The fluorescence intensity of the electrophoretically separated de-acetylated product and substrate peptide was measured. Activity in each sample was determined as the product to sum ratio (PSR):P/(S+P), where P is the peak height of the product peptide and S is the peak height of the substrate peptide. Percent inhibition (Pinh) is determined using the following equation:
Pinh=(PSR0%−PSRinh)/(PSR0%−PSR100%)*100, where PSRinh is the product sum ratio in the presence of inhibitor, PSR0% is the average product sum ration in the absence of inhibitor, and PSR100% is the average product sum ratio in 100%-inhibition control samples. The IC50 values of inhibitors were determined by fitting the %-inhibition curves with 4 parameter dose-response models using XLfit 4 software.

Structure (SMILES) | IC50 [nM]
O=C(NO)c1ccc2c(c1)OC[C@@H](c1ccccc1C(F)(F)F)N(C(=O)C1CCOCC1)C2 (single isomer, unassigned) | > 500
O=C(NO)c1ccc2c(c1)OC[C@@H](c1cccc(C(F)(F)F)c1)N(C(=O)C1CCOCC1)C2 (single isomer, unassigned) | 100 to 500
O=C(NO)c1ccc2c(c1)OC[C@H](c1cccnc1)N(C(=O)C1CCOCC1)C2 (single isomer, unassigned) | 100 to 500
O=C(NO)c1ccc2c(c1)OC[C@@H](c1ccccc1F)N(C(=O)C1CCOCC1)C2 [(R)-3-(2-fluorophenyl)-N-hydroxy-4-(tetrahydro-2H-pyran-4-carbonyl)-2,3,4,5-tetrahydrobenzo[f][1,4]oxazepine-8-carboxamide] | 100 to 500
O=C(NO)c1ccc2c(c1)OC[C@@H](c1ccccc1)N(C(=O)C1CCOCC1)C2 [(R)-N-hydroxy-3-phenyl-4-(tetrahydro-2H-pyran-4-carbonyl)-2,3,4,5-tetrahydrobenzo[f][1,4]oxazepine-8-carboxamide] | > 500
O=C(NO)c1ccc2c(c1)OC[C@H](c1ccccc1F)N(C(=O)C1CCOCC1)C2 [(S)-3-(2-fluorophenyl)-N-hydroxy-4-(tetrahydro-2H-pyran-4-carbonyl)-2,3,4,5-tetrahydrobenzo[f][1,4]oxazepine-8-carboxamide] | ≤ 100
O=C(NO)c1ccc2c(c1)OC[C@H](c1cccc(Cl)c1)N(C(=O)C1CCOCC1)C2 [(S)-3-(3-chlorophenyl)-N-hydroxy-4-(tetrahydro-2H-pyran-4-carbonyl)-2,3,4,5-tetrahydrobenzo[f][1,4]oxazepine-8-carboxamide] | ≤ 100
O=C(NO)c1ccc2c(c1)OC[C@H](c1cccc(F)c1)N(C(=O)C1CCOCC1)C2 [(S)-3-(3-fluorophenyl)-N-hydroxy-4-(tetrahydro-2H-pyran-4-carbonyl)-2,3,4,5-tetrahydrobenzo[f][1,4]oxazepine-8-carboxamide] | ≤ 100
O=C(NO)c1ccc2c(c1)OC[C@H](c1ccc(Cl)cc1)N(C(=O)C1CCOCC1)C2 [(S)-3-(4-chlorophenyl)-N-hydroxy-4-(tetrahydro-2H-pyran-4-carbonyl)-2,3,4,5-tetrahydrobenzo[f][1,4]oxazepine-8-carboxamide] | ≤ 100

Results, then the molecule that gave them:

IC50 [nM] | Structure (SMILES)
≤ 100 | O=C(NO)c1ccc2c(c1)OC[C@@H](c1cccnc1)N(C(=O)C1CCOCC1)C2 (single isomer, unassigned)
≤ 100 | O=C(NO)c1ccc2c(c1)OC[C@H](c1ccccc1)N(C(=O)[C@@H]1CCCOC1)C2 (single isomer, unassigned)
≤ 100 | O=C(NO)c1ccc2c(c1)OC[C@H](c1ccccc1)N(C(=O)[C@@H]1CCOC1)C2 (single isomer, unassigned)
≤ 100 | O=C(NO)c1ccc2c(c1)OC[C@H](c1ccccc1)N(C(=O)[C@H]1CCCOC1)C2 (single isomer, unassigned)
≤ 100 | O=C(NO)c1ccc2c(c1)OC[C@H](c1ccccc1)N(C(=O)[C@H]1CCOC1)C2 (single isomer, unassigned)
≤ 100 | O=C(NO)c1ccc2c(c1)OC[C@H](c1ccccc1C(F)(F)F)N(C(=O)C1CCOCC1)C2 (single isomer, unassigned)
≤ 100 | O=C(NO)c1ccc2c(c1)OC[C@H](c1cccc(C(F)(F)F)c1)N(C(=O)C1CCOCC1)C2 (single isomer, unassigned)
≤ 100 | O=C(NO)c1ccc2c(c1)OC[C@H](c1ccccc1)N(C(=O)C1CC3CCC(C1)O3)C2 (stereo partly drawn) [(3S)-4-(8-oxabicyclo[3.2.1]octane-3-carbonyl)-N-hydroxy-3-phenyl-2,3,4,5-tetrahydrobenzo[f][1,4]oxazepine-8-carboxamide]
≤ 100 | O=C(NO)c1ccc2c(c1)OC[C@H](c1ccccc1)N(C(=O)C1CCCO1)C2 (stereo partly drawn) [(3S)-N-hydroxy-3-phenyl-4-(tetrahydrofuran-2-carbonyl)-2,3,4,5-tetrahydrobenzo[f][1,4]oxazepine-8-carboxamide]
